Reference: patent US20060045953A1 (priority 2004, published 2006)
Like-named read-outs stand apart in the source and are kept apart here.

How the values were obtained:
[1] = target: T1, hT1R2/hT1R3 sweet receptor (Homo sapiens, UniProt Q7RTX0+Q8TE23); test: In vitro hT1R2/hT1R3 sweet taste receptor activation assay (FLIPR, dose response); type: cell-based
T1 construct: expressed in transfected cells; host or cells: HEK293 derivative stably expressing Gα15, clone S-9
T1 sequence (Q8TE23 20-839): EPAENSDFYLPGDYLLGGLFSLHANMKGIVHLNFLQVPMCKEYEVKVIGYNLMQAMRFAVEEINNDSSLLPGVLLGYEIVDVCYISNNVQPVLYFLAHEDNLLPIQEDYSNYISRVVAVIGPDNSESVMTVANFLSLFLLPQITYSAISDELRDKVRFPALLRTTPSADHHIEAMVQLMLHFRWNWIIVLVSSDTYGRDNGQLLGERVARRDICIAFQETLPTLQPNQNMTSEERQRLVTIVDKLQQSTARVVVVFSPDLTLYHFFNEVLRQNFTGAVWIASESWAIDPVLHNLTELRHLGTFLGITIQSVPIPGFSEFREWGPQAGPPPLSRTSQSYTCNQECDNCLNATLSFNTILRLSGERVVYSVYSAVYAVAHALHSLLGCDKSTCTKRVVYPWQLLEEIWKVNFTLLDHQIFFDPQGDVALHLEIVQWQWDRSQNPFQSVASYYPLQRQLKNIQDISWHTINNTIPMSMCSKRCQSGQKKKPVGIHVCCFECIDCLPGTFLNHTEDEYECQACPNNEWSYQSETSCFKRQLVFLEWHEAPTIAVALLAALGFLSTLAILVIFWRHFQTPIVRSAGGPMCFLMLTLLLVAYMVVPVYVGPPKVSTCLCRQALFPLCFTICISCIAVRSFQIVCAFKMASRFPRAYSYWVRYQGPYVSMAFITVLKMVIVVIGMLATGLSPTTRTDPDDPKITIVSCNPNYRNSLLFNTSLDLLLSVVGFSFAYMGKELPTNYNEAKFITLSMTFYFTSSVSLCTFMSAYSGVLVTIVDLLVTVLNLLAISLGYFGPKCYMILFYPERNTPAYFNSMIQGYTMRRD
T1 sequence (Q7RTX0 21-852): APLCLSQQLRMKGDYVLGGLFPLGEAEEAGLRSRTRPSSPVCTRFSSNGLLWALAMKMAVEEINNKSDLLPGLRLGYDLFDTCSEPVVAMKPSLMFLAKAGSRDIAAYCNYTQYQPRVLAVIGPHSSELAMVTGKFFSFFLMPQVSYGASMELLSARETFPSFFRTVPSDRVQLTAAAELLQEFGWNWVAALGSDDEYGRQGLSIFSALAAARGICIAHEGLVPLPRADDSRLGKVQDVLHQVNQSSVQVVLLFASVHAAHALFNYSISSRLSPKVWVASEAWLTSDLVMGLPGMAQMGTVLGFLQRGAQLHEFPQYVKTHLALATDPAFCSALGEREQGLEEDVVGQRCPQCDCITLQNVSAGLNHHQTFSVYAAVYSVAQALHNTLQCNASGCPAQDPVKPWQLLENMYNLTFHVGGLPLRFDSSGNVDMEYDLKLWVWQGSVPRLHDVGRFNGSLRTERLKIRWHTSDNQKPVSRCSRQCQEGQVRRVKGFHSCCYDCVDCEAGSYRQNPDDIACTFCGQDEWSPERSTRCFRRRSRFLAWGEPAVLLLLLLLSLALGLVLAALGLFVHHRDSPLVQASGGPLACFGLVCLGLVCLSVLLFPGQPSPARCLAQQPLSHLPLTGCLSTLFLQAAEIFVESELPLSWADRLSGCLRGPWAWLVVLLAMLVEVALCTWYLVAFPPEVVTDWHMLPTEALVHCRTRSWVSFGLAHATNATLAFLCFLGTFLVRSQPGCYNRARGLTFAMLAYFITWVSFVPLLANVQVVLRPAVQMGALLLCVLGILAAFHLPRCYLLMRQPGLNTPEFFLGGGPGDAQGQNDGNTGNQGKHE
How it was run: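 Dose-response at 10 concentrations (60 nM–30 µM, duplicates) measured as Fluo-3AM calcium fluorescence on FLIPR in hT1R2/hT1R3 S-9 cells, in D-PBS at room temperature. Responses scaled to 400 mM D-fructose. EC50s from regression with all curve parameters floating.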

[2] = target: T2, hT1R1/hT1R3 umami receptor (Homo sapiens, UniProt Q7RTX0+Q7RTX1); test: In vitro hT1R1/hT1R3 umami taste receptor activation assay (FLIPR, dose response); type: cell-based
T2 construct: expressed in transfected cells; host or cells: HEK293 derivative stably expressing Gα15, clone I-17, expression induced with mifepristone
T2 sequence (Q7RTX1 21-841): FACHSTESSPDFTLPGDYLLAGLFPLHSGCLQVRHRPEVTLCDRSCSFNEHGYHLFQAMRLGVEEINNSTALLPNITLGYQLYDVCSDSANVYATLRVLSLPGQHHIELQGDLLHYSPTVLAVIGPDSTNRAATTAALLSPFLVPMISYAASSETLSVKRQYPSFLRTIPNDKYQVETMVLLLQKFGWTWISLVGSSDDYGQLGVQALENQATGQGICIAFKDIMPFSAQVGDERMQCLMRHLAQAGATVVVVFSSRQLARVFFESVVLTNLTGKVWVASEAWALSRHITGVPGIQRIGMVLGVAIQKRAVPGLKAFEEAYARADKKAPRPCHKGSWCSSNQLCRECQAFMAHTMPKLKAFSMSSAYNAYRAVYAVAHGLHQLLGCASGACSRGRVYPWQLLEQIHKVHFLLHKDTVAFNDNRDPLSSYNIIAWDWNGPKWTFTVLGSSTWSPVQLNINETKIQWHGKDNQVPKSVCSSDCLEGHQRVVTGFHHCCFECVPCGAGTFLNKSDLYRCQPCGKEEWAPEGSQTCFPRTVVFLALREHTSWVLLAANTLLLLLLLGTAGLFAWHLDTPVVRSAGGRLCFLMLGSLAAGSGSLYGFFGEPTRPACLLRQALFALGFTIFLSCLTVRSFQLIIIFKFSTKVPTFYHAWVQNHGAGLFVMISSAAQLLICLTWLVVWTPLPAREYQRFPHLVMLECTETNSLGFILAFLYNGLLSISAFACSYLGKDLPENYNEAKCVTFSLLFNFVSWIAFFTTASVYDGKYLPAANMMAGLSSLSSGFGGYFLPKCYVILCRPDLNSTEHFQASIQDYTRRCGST
T2 sequence (Q7RTX0 21-852): T1 sequence (Q7RTX0 21-852)

[3] = read-out: EC50 for activation of a hT1R1/hT1R3 umami receptor expressed in an HEK293 cell line
[4] = Table E, Sweet Enhancer Amides, read-out: Sweet EC50

SMILES	melting point [°C]	EC50 ([1]; read-out: EC50 for activation of a hT1R2/hT1R3 sweet receptor expressed in an HEK293 cell line) [nM]	EC50 [2, 3] [nM]	EC50 [1, 4] [nM]	EC50 ([2]; Table E, read-out: Umami EC50) [nM]
O=C(N[C@@H]1CCCc2c(O)cccc21)c1cccc(Cl)c1O (stereo in doubt) [Example 180, 3-Chloro-2-hydroxy-N-(5-hydroxy-1,2,3,4-tetrahydronaphthalen-1-yl)benzamide]	148 to 151	1170	–	–	–
CCCC(CCC)NC(=O)c1ccc2oc(CC)nc2c1 [Example 41, 2-Ethyl-benzooxazole-5-carboxylic acid (1-propyl-butyl)-amide]	107 to 108	–	680	–	–
CCCC(CCC)NC(=O)c1ccc2oc(OC)nc2c1 [Example 42, 2-Methoxy-benzooxazole-5-carboxylic acid (1-propyl-butyl)-amide]	137 to 138	–	690	–	–
CCCC(CCC)NC(=O)c1ccc2oc(OCC)nc2c1 [Example 43, 2-Ethoxy-benzooxazole-5-carboxylic acid (1-propyl-butyl)-amide]	128 to 129	–	5000	–	–
CCCC(CCC)NC(=O)c1ccc2oc(SC)nc2c1 [Example 44, N-(heptan-4-yl)-2-(methylthio)benzo[d]oxazole-5-carboxamide]	113 to 114	–	3100	–	–
CCCC(CCC)NC(=O)c1ccc2oc(CCl)nc2c1 [Example 45, Chloromethyl benzooxazol-5-carboxylic acid (1-propyl-butyl)amide]	108.5 to 109	–	230	–	–
CCCC(CCC)NC(=O)c1ccc2nc(CCl)oc2c1 [Example 47, 2-Chloromethyl-benzooxazole-6-carboxylic acid (1-propyl-butyl)-amide]	137 to 137.5	–	450	–	–
CCCC(CCC)NC(=O)c1ccc(SC)c(C)c1 [Example 51, N-(heptan-4-yl)-3-methyl-4-(methylthio)benzamide]	129 to 131	–	120	–	–
COc1ccccc1CNC(=O)C(=O)NCCc1ccccn1 [Example 122, N-(2-Methoxy-benzyl)-N′-(2-pyridin-2-yl-ethyl)-oxalamide]	118 to 119	–	340	–	–
Cc1ccsc1CNC(=O)C(=O)NCCc1ccccn1 [Example 124, N-(3-Methyl-thiophen-2-ylmethyl)-N′-(2-pyridin-2-yl-ethyl)-oxalamide]	122 to 124	–	370	–	–
Cc1ccc(CNC(=O)C(=O)NCCc2ccccn2)cc1 [Example 125, N-(4-methyl-benzyl)-N′-(2-pyridin-2-yl-ethyl)-oxalamide]	152 to 154	–	410	–	–
COc1ccc(CNC(=O)C(=O)NCCc2ccccn2)c(C)c1 [Example 126, N-(2-Methyl-4-methoxybenzyl)-N′-(2-pyridin-2-yl-ethyl)-oxalamide]	133 to 134	–	110	–	–
Cc1cc(CNC(=O)C(=O)NCCc2ccccn2)c(C)o1 [Example 130, N-(2,5-Dimethyl-furan-3-ylmethyl)-N′-(2-pyridin-2-yl-ethyl)-oxalamide]	112 to 115	–	1010	–	–
Cc1ccc(CNC(=O)C(=O)NCCc2ccccn2)n1C [Example 131, N-(1,5-Dimethyl-1H-pyrrol-2-ylmethyl)-N′-(2-pyridin-2-yl-ethyl)-oxalamide]	147 to 149	–	2300	–	–
Cc1ccc(CNC(=O)C(=O)NCCc2ccccn2)c(C)c1 [Example 133, N-(2,4-dimethylbenzyl)-N′-(2-(pyridin-2-yl)ethyl)oxalamide]	148 to 149	–	70	–	–
CCOc1ccc(CNC(=O)C(=O)NCCc2ccccn2)c(OC)c1 [Example 134, N-(4-ethoxy-2-methoxybenzyl)-N′-(2-(pyridin-2-yl)ethyl)oxalamide]	117 to 118	–	100	–	–
COc1ccc(CNC(=O)C(=O)NCCc2ccccn2)cc1C [Example 135]	145 to 147	–	1040	–	–
COc1ccc(CNC(=O)C(=O)NCCc2cc(C)ccn2)c(OC)c1 [Example 154, N-(2,4-Dimethoxybenzyl)-N′-(2-(4-methylpyridin-2-yl)ethyl)oxalamide]	144 to 145	–	1640	–	–
COc1ccc(CNC(=O)C(=O)NCCc2ccc(C)cn2)c(OC)c1 [Example 155, N-(2,4-Dimethoxybenzyl)-N′-(2-(5-methylpyridin-2-yl)ethyl)oxalamide]	124 to 125	–	70	–	–
COc1ccc(CNC(=O)C(=O)NCCc2cccs2)c(OC)c1 [Example 156, N-(2,4-Dimethoxybenzyl)-N′-(2-(thiophen-2-yl)ethyl)oxalamide]	146 to 147	–	4870	–	–
CCCC(CCC)NC(=O)Nc1ccccc1Cl [Example 158]	135 to 136	–	370	–	–
CCCC(CCC)NC(=O)Nc1ccc(OC)cc1OC [Example 159, 1-(2,4-dimethoxyphenyl)-3-(heptan-4-yl)urea]	172 to 173	–	980	–	–
CCOc1ccc(NC(=O)NCCc2ccccn2)cc1 [Example 160, 1-(4-ethoxyphenyl)-3-(2-(pyridine-2-yl)ethyl)urea]	163 to 164	–	4100	–	–
CC(C)c1ccc(NC(=O)NCCc2ccccn2)cc1 [Example 161, 1-(4-isopropylphenyl)-3-(2-(pyridine-2-yl)ethyl)urea]	72 to 73	–	980	–	–
CCCC(CCC)NC(=O)c1cccc(C(F)(F)F)c1 [Example E68, N-(heptan-4-yl)-3-(trifluoromethyl)benzamide]	–	–	–	3030	330
CC1CCCCC1NC(=O)c1nsc(Cl)c1Cl (stereo not shown) [Example E78, 4,5-Dichloro-isothiazole-3-carboxylic acid (2-methyl-cyclohexyl)-amide]	–	–	–	4240	8510
